Assay results: patent US10221163B2 (priority 2015, dated 2019)

What was measured:
[1] = system: Pseudomonas aeruginosa efflux+ (MB9798), IMP-1; assay type: cell-based; design: Concentration of metallo-β-lactamase inhibitor which restores susceptibility of efflux + (MB9798) strain to imipenem: unit not given here; settings: C, D serine β-lactamase inhibitor closely related to relebactam; for P. aeruginosa expressing IMP-1, efflux + (MB9798) MITC95: concentration restoring susceptibility to imipenem at 2 μg/mL in the presence of a class A; for Concentration of metallo-β-lactamase inhibitor which restores susceptibility of efflux + (MB9798) strain to imipenem: imipenem at 2 μg/mL, in the presence of a class A
Excerpt: (§1) The strain background was Pseudomonas aeruginosa PAO1.
(§2) The strain set was then used as a pair to determine the effect of metallo-β-lactamase inhibitors of Formula I on the MIC of imipenem and/or ceftazidime. A fixed concentration of antibiotic was included in standard microbroth MIC tests, usually at the CLSI (Clinical and Laboratory Standards Institute) breakpoint concentration. A fixed amount of a class A/C beta-lactamase inhibitor was also included to inhibit the resident Pseudomonas AmpC enzyme. A serial titration of the metallo-β-lactamase inhibitor was included and the concentration of metallo-β-lactamase inhibitor which restores susceptibility of the strain to the included antibiotic was recorded. That concentration of metallo-β-lactamase inhibitor was then compared between the two strains to determine the fold difference between the efflux+ (MB9798) and efflux− (MB9799) strains. This was taken as an indication of the extent to which the MBLi is subject to efflux.

[2] = system: Pseudomonas aeruginosa efflux− (MB9799), IMP-1; assay type: cell-based; settings: C, D serine β-lactamase inhibitor closely related to relebactam; for P. aeruginosa expressing IMP-1, efflux − (MB9799) MITC95: concentration restoring susceptibility to imipenem at 2 μg/mL in the presence of a class A; for Concentration of metallo-β-lactamase inhibitor which restores susceptibility of efflux − (MB9799) strain to imipenem: imipenem at 2 μg/mL, in the presence of a class A
Excerpt: as §1, §2

[3] = system: Klebsiella pneumoniae expressing VIM-1 (IHMA599644); assay type: cell-based; settings: for Klebsiella pneumoniae MITC95: VIM-1 strain IHMA599644, with imipenem 1 μg/ml, 95% inhibition of growth
Procedure: (§3) Antibiotic Potentiation Activity: Determination of Synergistic Concentration
(§4) The bacterial strains tested included the clinical strains Escherichia coli expressing NDM-1 (CLB30005, CLB30016), Serratia marcescens expressing IMP-1 (CL5741), and Klebsiella pneumoniae expressing VIM-1 (IHMA599644). Inhibitor activity was measured in the presence and absence of imipenem in a 384-well microplate.
(§5) The clinical strains CLB30016, CL5741 and IHMA599644 were grown on trypticase soy agar containing 5% sheep's blood. The bacteria on agar plates were incubated at 35° C. with humidity overnight. The following day, individual colonies from each clinical strain were picked and resuspended in 5 ml saline to attain an OD600 of […], for CLB30016, CL5741 and IHMA599644, respectively. These were further diluted 1:100 into 1.1×CAMHB and used to inoculate the test wells as described below.
(§6) Imipenem in 10 mM 3-(N-morpholino)propanesulfonic acid (MOPS, pH 7) was stored in single use aliquots at −80° C. […] On the day of the assay, 4 μl of antibiotic was added to 45 ul of bacteria followed by 1 μl of test compound and mixed by pipetting and with an orbital shaker. The concentration of antibiotic used in the assay was 1 μg/ml. Microplates were covered and incubated at 35° C. for 22 hours to 24 hours. At the end of the incubation, absorbance was determined using a spectrophotometer.

[4] = system: Escherichia coli expressing NDM-1 (CLB30005, CLB30016); assay type: cell-based; settings: with imipenem 1 μg/ml; for Escherichia coli MITC95: NDM-1 strain, 95% inhibition of growth
Procedure: as §3, §4, §5, §6

[5] = system: Serratia marcescens expressing IMP-1 (CL5741); assay type: cell-based; settings: for Serratia marcescens MITC95: IMP-1 strain CL5741, with imipenem 1 μg/ml, 95% inhibition of growth
Procedure: as §3, §4, §5, §6

IMP-1 = IMP-1 (Serratia marcescens, UniProt P52699); assay: biochemical; assay type: biochemical; settings: fluorescence assay, CCF2-FA substrate, 2 pM enzyme, 2 hours at 25° C.; read-out: IMP-1 IC50
Procedure: (§7) Enzyme Activity: Determination of IC50
(§8) The Class B enzyme activities were measured in the presence of the test inhibitor in a fluorescence assay against a commercially available substrate consisting of a cephalosporin core linking 7-hydroxycoumarin to fluorescein (CCF2-FA). […] In a 384-well microplate, the test inhibitor was incubated with the metallo-β-lactamase enzyme and the substrate for 2 hours at 25° C. […] The IC50 value was determined from semi-logarithmic plots of enzyme inhibition versus inhibitor concentration, with a curve generated using a 4-parameter fit.

NDM-1 = NDM-1 (Klebsiella pneumoniae, UniProt C7C422); assay: biochemical; assay type: biochemical; settings: fluorescence assay, CCF2-FA substrate, 1 pM enzyme, 2 hours at 25° C.; read-out: NDM-1 IC50
Procedure: as §7, §8

[6] = with imipenem 1 μg/ml, 95% inhibition of bacterial growth

NDM-1, sequence (C7C422 whole entry, looked up, species assumed): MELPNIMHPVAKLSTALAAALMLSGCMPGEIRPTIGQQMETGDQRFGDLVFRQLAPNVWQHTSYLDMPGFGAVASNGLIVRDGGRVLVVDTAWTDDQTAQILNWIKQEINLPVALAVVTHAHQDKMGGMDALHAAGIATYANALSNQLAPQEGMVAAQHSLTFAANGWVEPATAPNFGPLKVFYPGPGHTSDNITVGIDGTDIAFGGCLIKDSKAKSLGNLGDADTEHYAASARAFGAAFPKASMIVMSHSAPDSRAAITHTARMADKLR
IMP-1, sequence (P52699 whole entry, looked up, species assumed): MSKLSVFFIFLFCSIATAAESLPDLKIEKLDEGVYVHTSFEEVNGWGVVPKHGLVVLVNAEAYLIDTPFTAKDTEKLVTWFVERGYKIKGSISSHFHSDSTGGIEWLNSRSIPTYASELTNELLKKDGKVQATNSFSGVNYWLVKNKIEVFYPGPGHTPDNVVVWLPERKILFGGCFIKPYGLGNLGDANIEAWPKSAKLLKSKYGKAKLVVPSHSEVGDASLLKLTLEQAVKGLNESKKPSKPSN

SMILES	P. aeruginosa expressing IMP-1, efflux + (MB9798) MITC95 [1]	P. aeruginosa expressing IMP-1, efflux − (MB9799) MITC95 [2]	Klebsiella pneumoniae expressing VIM-1 (IHMA599644) MITC95 [3, 6]	Escherichia coli expressing NDM-1 (CLB30016) MITC95 ([4]; 95% inhibition of bacterial growth)	Serratia marcescens expressing IMP-1 (CL5741) MITC95 [5, 6]	IC50 (IMP-1)	IC50 (NDM-1)	Klebsiella pneumoniae MITC95 [3]	Escherichia coli MITC95 [4]	Serratia marcescens MITC95 [5]	Concentration of metallo-β-lactamase inhibitor which restores susceptibility of efflux + (MB9798) strain to imipenem [1]	Concentration of metallo-β-lactamase inhibitor which restores susceptibility of efflux − (MB9799) strain to imipenem [2]
NCCNS(=O)(=O)c1ccc(-c2cccc(-c3nc[nH]n3)c2)c(-c2nn[nH]n2)c1S(N)(=O)=O [Example 224, N^4-(2-aminoethyl)-2-(2H-tetrazol-5-yl)-3′-(1H-1,2,4-triazol-3-yl)-[1,1′-biphenyl]-3,4-disulfonamide]	1.563 µM	0.7813 µM	3.125 µM	1.563 µM	1.563 µM	0.412 nM	0.142 nM					
C[N+]1(CCN)CC[C@@H](NS(=O)(=O)c2ccc(-c3cccc4[nH]c(N)nc34)c(-c3nn[nH]n3)c2S(N)(=O)=O)C1.O=CO[O-] (stereo partly drawn) [Example 248, (3R)-3-{[4-(2-amino-1H-1,3-benzodiazol-4-yl)-2-sulfamoyl-3-(2H-1,2,3,4-tetrazol-5-yl)benzene]sulfonamido}-1-(2-aminoethyl)-1-methylpyrrolidin-1-ium; methaneperoxoate]	0.7813 µM	0.7813 µM				0.147 nM	0.0105 nM	0.7813 µM	0.3906 µM	1.563 µM		
NCC(=O)NC1C=C(c2ccc(S(=O)(=O)N[C@@H]3CCNC3)c(S(N)(=O)=O)c2-c2nn[nH]n2)CCC1 (stereo partly drawn) [Example 269, 2-Amino-N-(4′-(N—((R)-pyrrolidin-3-yl)sulfamoyl)-3′-sulfamoyl-2′-(2H-tetrazol-5-yl)-3,4,5,6-tetrahydro-[1,1′-biphenyl]-3-yl)acetamide]	3.125 µM	1.563 µM				4.03 nM	1.17 nM	3.125 µM	1.563 µM	1.563 µM		
Cn1nnc2c(-c3ccc(S(=O)(=O)N[C@H]4CCNC4)c(S(N)(=O)=O)c3-c3nn[nH]n3)cccc21 [Example 293, (S)-4-(1-methyl-1H-benzo[d][1,2,3]triazol-4-yl)-N1-(pyrrolidin-3-yl)-3-(2H-tetrazol-5-yl)benzene-1,2-disulfonamide]	3.125 µM	1.563 µM				1.3 nM	0.285 nM	3.125 µM	3.125 µM	3.125 µM		
NC[C@H](N)CNS(=O)(=O)c1ccc(-c2cccn3ccnc23)c(-c2nn[nH]n2)c1S(N)(=O)=O [Example 374, (S)-N1-(2,3-diaminopropyl)-4-(imidazo[1,2-a]pyridin-8-yl)-3-(2H-tetrazol-5-yl)benzene-1,2-disulfonamide]	1.563 µM	1.563 µM				0.278 nM	0.157 nM	6.25 µM	0.7813 µM	3.125 µM		
Nc1nc2c(-c3ccc(S(=O)(=O)NCC4(O)CNC4)c(S(N)(=O)=O)c3-c3nn[nH]n3)cccc2s1 [Example 387, 4-(2-amino-1,3-benzothiazol-4-yl)-N^1-[(3-hydroxyazetidin-3-yl)methyl]-3-(2H-tetrazol-5-yl)benzene-1,2-disulfonamide]	0.7813 µM	1.563 µM				0.244 nM	0.0646 nM	6.25 µM	1.563 µM	1.563 µM		
C[N+](C)(C)CCCNS(=O)(=O)c1ccc(-c2cccc3sc(N)nc23)c(-c2nnn[nH]2)c1S(N)(=O)=O.O=C([O-])C(F)(F)F [Example 392, 3-({[4-(2-amino-1,3-benzothiazol-4-yl)-2-sulfamoyl-3-(1H-tetrazol-5-yl)phenyl]sulfonyl}amino)-N,N,N-trimethylpropan-1-aminium trifluoroacetate]						0.221 nM	0.0318 nM	12.5 µM	3.125 µM	3.125 µM	1.563	3.125
C[C@H](CN)NS(=O)(=O)c1ccc(-c2cc(F)cc3[nH]c(N)nc23)c(-c2nn[nH]n2)c1S(N)(=O)=O [Example 396]						0.221 nM	0.0269 nM	3.125 µM	0.7813 µM	0.3906 µM	0.7813	1.563
C[C@@H](CN)NS(=O)(=O)c1ccc(-c2cc(F)cc3[nH]c(N)nc23)c(-c2nn[nH]n2)c1S(N)(=O)=O [Example 397]						1.6 nM	0.161 nM	3.125 µM	3.125 µM	0.7813 µM	1.563	1.563
Nc1nc2c(-c3ccc(S(=O)(=O)N[C@H]4CCNC4)c(S(N)(=O)=O)c3-c3nn[nH]n3)cc(F)cc2[nH]1 [Example 399]						0.533 nM	0.0822 nM	1.563 µM	0.7813 µM	1.563 µM	0.7813	0.7813
NC[C@@H](O)CNS(=O)(=O)c1ccc(-c2ccnc(N)c2)c(-c2nn[nH]n2)c1S(N)(=O)=O [Example 419]						1.51 nM	0.496 nM	1.563 µM	0.1953 µM	0.7813 µM	1.563	0.7813
C[C@H](N)CNS(=O)(=O)c1ccc(-c2ccnc(N)c2)c(-c2nn[nH]n2)c1S(N)(=O)=O [Example 421]						1.14 nM	0.196 nM	1.563 µM	0.3906 µM	0.7813 µM	1.563	0.7813
C[C@@H](N)CNS(=O)(=O)c1ccc(-c2ccnc(N)c2)c(-c2nn[nH]n2)c1S(N)(=O)=O [Example 422]						0.982 nM	0.386 nM	1.563 µM	0.3906 µM	0.7813 µM	1.563	0.7813
